{"source": "patent US20250345332A1", "about": "“APROCITENTAN FOR THE TREATMENT OF HYPERTENSION” (IDORSIA PHARMACEUTICALS LTD, priority 2022, published 2025)", "origin": "cited, not measured here", "key": {"[1]": {"system": "subjects having essential hypertension", "conditions": "after 8 weeks once daily, at trough, aprocitentan 5, 10, 25, 50 mg groups, lisinopril 20 mg, cited from earlier work"}, "[2]": {"system": "subjects having essential hypertension", "conditions": "lisinopril 20 mg, cited from earlier work"}, "patients with rHT": {"system": "patients with rHT", "conditions": "cited from earlier work"}, "[3]": {"system": "patients with type 2 diabetes and overt diabetic nephropathy", "conditions": "in vivo; cited from earlier work"}}, "data": [{"smiles": "NCCCC[C@H](N[C@@H](CCc1ccccc1)C(=O)O)C(=O)N1CCC[C@H]1C(=O)O", "note": "[lisinopril, reference compound]", "values": [{"measurement": "mean reduction from baseline in diastolic blood pressure", "setting": "[1]; per-protocol population", "value": 8.4, "unit": "mmHg"}, {"measurement": "systolic blood pressure reductions", "setting": "[1]", "value": 12.8, "unit": "mmHg"}, {"measurement": "discontinuation from study treatment due to an adverse event", "setting": "[2]; aprocitentan 5-50 mg groups", "value": 3.7, "unit": "%"}, {"measurement": "mean body weight decrease from baseline", "setting": "[2]", "value": 0.3, "unit": "kg"}]}, {"smiles": "COc1cc(OC)nc(O[C@H](C(=O)O)C(OC)(c2ccccc2)c2ccccc2)n1", "note": "[darusentan]", "values": [{"measurement": "reduction of ambulatory blood pressure", "setting": "patients with rHT; 14 weeks", "value": "demonstrated efficacy"}, {"measurement": "treatment effect on the primary endpoint systolic blood pressure", "setting": "patients with rHT; 14 weeks", "value": "failed to show significant treatment effect"}, {"measurement": "fluid retention/edema (most frequent adverse event)", "setting": "patients with rHT; versus 12% in each of the other groups", "value": 28, "unit": "%"}]}, {"smiles": "COc1ccccc1Oc1c(NS(=O)(=O)c2ccc(C)cn2)nc(-c2ccncc2)nc1OC", "note": "[Avosentan, avosentan]", "values": [{"measurement": "albumin-to-creatinine ratio (ACR)", "setting": "[3]", "value": "significantly reduced"}]}]}
